Measured values published in patent publication US20230115945A1, “AMINOPYRIMIDINE COMPOUNDS” (TYRA BIOSCIENCES, INC., priority 2019, published 2023).

Columns and labels:
FGFR1-BCR Ba/F3 cells = target: T1, FGFR1-BCR Ba/F3 cells (Homo sapiens, UniProt P11362); assay: Ba/F3 cell viability assay, FGFR1; format: cell-based; details: FGFR1-BCR Ba/F3, 48 hours, Cell Titer-Glo 2.0; read-out: Ba/F3 Cells FGFR1 (IC50 nM)
T1 construct: Ba/F3 FGFR1; FGFR1-BCR; Advanced Cellular Dynamics, (Seattle, WA); fused on or other part: P11274 (Breakpoint cluster region protein)
T1 sequence (P11362 whole entry, change not shown, the tested form may be a part): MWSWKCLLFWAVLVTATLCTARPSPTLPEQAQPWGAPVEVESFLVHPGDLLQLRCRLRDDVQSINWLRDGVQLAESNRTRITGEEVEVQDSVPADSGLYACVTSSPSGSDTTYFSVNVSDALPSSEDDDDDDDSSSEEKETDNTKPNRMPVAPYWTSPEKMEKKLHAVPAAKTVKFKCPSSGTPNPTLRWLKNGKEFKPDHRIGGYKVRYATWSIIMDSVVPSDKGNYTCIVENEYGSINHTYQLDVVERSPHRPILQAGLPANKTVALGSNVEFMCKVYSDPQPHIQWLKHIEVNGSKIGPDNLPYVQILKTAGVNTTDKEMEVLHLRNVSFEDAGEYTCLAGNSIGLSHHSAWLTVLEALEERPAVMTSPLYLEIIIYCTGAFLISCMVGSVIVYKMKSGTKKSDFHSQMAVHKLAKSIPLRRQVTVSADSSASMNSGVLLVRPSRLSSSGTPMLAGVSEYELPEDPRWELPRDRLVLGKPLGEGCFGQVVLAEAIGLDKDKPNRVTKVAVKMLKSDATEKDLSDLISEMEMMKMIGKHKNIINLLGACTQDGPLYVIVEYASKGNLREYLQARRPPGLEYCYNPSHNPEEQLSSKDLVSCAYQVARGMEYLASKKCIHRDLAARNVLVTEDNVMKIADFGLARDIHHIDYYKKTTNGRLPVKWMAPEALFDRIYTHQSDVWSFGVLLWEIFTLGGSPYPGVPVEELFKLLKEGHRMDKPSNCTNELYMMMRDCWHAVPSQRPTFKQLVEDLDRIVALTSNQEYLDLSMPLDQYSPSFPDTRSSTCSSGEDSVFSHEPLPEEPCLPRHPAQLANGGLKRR
Text: (§1) Experimental Purpose: Recombinant kinase fusions are transduced into parental Ba/F3, which becomes dependent upon this constitutive kinase activity for IL3-independent survival. Inhibition of kinase activity leads to cell death, which is monitored using CellTiter-Glo® 2.0 (Promega) which measures intracellular ATP concentration that in turn serves as a marker for viability. FGFR1-BCR Ba/F3 and FGFR3-BAIAP2L1 Ba/F3 were obtained from Advanced Cellular Dynamics (Seattle, Wash.)
(§2) Cell Viability Assay Procedure: Cell Titer-Glo® 2.0 Luminescent cell viability assay reagent was purchased from Promega (Madison, Wis.). FGFR1-BCR Ba/F3 and FGFR3-BAIAP2L1 Ba/F3 cells were cultured in RPMI1640 media supplemented with 10% fetal bovine serum. Cultures were maintained at 37° C. in a humidified atmosphere of 5% CO2 and 95% air.
(§3) Cells were plated in 96-well clear bottom/white plates (Corning #3903) at 10,000 cells/well in 100 μl of media, incubated overnight. The next day, test compound DMSO stock solutions were made at 10 mM and 2 μM final concentration. Compounds were then added to cells in a 9-dose, 10-fold dilution series starting at 30 μM with an HP 300e Digital Dispenser (each dose was applied in triplicate). DMSO was backfilled to each well up to 301 nL total volume of test compound+DMSO, and a total of 301 nL DMSO was added to a control/no test compound well in triplicate. The cells in cell culture plates were incubated with the compounds at 37° C. and 5% CO2 for 48 hours. Then 50 μl of Cell Titer Glo 2.0 reagent was added to each well of the cell culture plates. The contents were covered from light and mixed on an orbital shaker at room temperature for 10 min. Luminescence was recorded by a Synergy H1 Microplate Reader (Biotek, Winooski, Vt.). Cells were assessed as a percentage of DMSO only treated control cells. Curves were plotted and IC50 values were calculated using the GraphPad Prism 8 program based on a sigmoidal dose-response equation (4 parameter).

FGFR2 = target: T2, FGFR2 (Homo sapiens, UniProt P21802); assay: Kinase binding assay (Kd), FGFR2; details: 11-point 3-fold dilution, qPCR readout
T2 construct: made in house; host or cells: E. coli host derived from BL21, infected with T7 phage
T2 sequence (P21802 22-821): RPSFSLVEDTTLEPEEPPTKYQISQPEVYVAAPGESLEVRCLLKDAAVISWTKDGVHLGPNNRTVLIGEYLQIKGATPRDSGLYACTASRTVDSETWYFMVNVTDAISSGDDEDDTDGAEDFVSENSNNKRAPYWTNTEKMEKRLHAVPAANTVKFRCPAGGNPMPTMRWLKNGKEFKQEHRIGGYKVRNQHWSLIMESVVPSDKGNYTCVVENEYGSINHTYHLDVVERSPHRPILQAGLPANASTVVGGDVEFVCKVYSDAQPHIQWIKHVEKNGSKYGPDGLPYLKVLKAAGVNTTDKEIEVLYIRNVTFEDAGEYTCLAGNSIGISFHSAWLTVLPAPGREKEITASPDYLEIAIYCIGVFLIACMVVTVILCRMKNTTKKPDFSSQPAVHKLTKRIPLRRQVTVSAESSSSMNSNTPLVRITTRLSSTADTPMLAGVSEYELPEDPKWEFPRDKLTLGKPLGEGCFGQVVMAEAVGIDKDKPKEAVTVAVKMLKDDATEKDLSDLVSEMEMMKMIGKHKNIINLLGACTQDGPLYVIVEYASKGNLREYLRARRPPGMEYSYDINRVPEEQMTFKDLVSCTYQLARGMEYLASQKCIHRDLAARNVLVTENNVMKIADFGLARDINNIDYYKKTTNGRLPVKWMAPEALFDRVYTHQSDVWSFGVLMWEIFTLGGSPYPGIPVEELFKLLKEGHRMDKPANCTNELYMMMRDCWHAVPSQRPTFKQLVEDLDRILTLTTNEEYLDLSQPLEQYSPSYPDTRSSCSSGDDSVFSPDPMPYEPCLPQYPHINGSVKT
In short: (§4)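 Competition binding: kinase-tagged T7 phage, ligand-coated streptavidin beads and an 11-point 3-fold compound series (0.9% DMSO final) were incubated 1 h at room temperature. Bead-bound kinase was eluted and quantified by qPCR. Kd was fitted to the Hill equation with slope fixed at −1.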

FGFR3 = target: T3, FGFR3 (Homo sapiens, UniProt P22607); assay: Kinase binding assay (Kd), FGFR3; details: 11-point 3-fold dilution, qPCR readout
T3 construct: made in house; host or cells: E. coli host derived from BL21, infected with T7 phage
T3 sequence (P22607 23-806): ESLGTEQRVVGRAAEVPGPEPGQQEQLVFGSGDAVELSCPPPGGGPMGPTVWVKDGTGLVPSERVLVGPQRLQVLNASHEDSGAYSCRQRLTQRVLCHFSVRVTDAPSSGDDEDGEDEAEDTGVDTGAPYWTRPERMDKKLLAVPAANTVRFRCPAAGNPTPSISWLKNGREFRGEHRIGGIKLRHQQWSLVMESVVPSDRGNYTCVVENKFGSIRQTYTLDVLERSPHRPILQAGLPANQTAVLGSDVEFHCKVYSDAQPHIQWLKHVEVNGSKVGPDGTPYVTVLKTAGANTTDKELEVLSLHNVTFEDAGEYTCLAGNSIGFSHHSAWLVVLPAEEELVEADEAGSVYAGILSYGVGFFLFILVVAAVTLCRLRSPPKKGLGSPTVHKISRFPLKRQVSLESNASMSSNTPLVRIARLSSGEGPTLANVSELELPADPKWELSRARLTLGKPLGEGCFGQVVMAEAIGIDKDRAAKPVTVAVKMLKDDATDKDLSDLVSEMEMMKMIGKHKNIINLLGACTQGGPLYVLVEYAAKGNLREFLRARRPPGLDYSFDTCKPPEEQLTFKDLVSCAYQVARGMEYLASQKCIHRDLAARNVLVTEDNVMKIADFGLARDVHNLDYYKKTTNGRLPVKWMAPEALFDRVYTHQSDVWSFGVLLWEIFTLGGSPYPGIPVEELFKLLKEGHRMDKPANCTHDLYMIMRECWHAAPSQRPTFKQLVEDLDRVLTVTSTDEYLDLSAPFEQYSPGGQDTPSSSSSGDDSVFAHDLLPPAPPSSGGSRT
In short: as §4

[1] = tested on: RT112/84 cells (Bladder Cancer, FGFR3-TACC3 fusion); assay: Cancer cell line cell viability assay, RT112/84; format: cell-based; details: Homo sapiens, 72 hours, Cell Titer-Glo 2.0, read-out: Cancer Cell Viability Assays RT112/84 (IC50 nM)
Text: (§5) [table] To detect the change of intracellular ATP by Cell Titer-Glo® and to evaluate the inhibitory effect of the compounds on cancer cell lines by determining the in vitro IC50 value of the compounds. Cell Titer-Glo® 2.0 Luminescent cell viability assay reagent was purchased from Promega (Madison, Wis.). RT112/84, SNU-16, and KG-1 cell lines were purchased from American Type Culture Collection (Manassas, Va.). UM-UC-14 cell line was purchased from Sigma (St. Louis, Mo.). RT112/84, UM-UC-14, SNU-16, and KG-1 cells were cultured in RPMI1640 media supplemented with 10% fetal bovine serum. Cultures were maintained at 37° C. in a humidified atmosphere of 5% CO2 and 95% air. Cell Viability Assay Procedure: Cells were plated in 96-well clear bottom/white plates (Corning #3903) at 10,000 cells/well in 100 μl of media, incubated overnight. The next day, test compound DMSO stock solutions were made at 10 mM and 2 μM final concentration. Compounds were then added to cells in a 9-dose, […] dilution series starting at 30 μM with an HP 300e Digital Dispenser (each dose was applied in triplicate). DMSO was backfilled to each well up to 301 nL total volume of test compound+DMSO, and a total of 301 nL DMSO was added to a control/no test compound well in triplicate. The cells in cell culture plates were incubated with the compounds at 37° C. and 5% CO2 for 72 hours. Then 50 μl of Cell Titer Glo 2.0 reagent was added to each well of the cell culture plates. The contents were covered from light and mixed on an orbital shaker at room temperature for 10 min. Luminescence was recorded by a Synergy H1 Microplate Reader (Biotek, Winooski, Vt.). Cells were assessed as a percentage of DMSO only treated control cells. Curves were plotted and IC50 values were calculated using the GraphPad Prism 8 program based on a sigmoidal dose-response equation (4 parameter).

FGFR4 = target: T4, FGFR4 (Homo sapiens, UniProt P22455); assay: Kinase binding assay (Kd), FGFR4; details: 11-point 3-fold dilution, qPCR readout
T4 construct: made in house; host or cells: E. coli host derived from BL21, infected with T7 phage
T4 sequence (P22455 22-802): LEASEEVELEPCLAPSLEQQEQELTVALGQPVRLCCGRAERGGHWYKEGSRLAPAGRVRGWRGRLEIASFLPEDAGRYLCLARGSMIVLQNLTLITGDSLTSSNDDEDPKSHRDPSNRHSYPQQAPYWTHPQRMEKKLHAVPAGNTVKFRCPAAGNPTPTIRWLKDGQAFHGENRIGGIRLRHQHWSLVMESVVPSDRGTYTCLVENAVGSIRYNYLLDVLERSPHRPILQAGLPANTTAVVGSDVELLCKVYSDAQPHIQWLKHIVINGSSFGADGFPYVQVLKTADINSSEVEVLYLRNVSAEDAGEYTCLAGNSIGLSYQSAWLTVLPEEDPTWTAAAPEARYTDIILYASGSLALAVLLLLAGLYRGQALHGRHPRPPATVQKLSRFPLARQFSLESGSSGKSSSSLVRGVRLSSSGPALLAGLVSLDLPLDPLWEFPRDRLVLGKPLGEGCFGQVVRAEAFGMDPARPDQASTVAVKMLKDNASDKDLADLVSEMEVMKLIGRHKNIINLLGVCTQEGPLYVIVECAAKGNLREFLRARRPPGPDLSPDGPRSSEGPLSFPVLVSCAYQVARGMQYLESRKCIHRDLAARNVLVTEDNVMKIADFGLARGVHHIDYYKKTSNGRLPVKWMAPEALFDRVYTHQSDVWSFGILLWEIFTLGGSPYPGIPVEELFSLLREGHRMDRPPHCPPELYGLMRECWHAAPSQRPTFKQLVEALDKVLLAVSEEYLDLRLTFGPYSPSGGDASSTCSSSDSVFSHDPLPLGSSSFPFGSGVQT
In short: as §4

FGFR3 (V555M) = target: T5, FGFR3 (V555M) (Homo sapiens, UniProt P22607, V555M); assay: Kinase binding assay (Kd), FGFR3 (V555M); details: 11-point 3-fold dilution, qPCR readout
T5 construct: made in house; host or cells: E. coli host derived from BL21, infected with T7 phage
T5 sequence (P22607 23-806 V555M): as the sequence (P22607 23-806) above, with V533M counted along it
In short: as §4

[2] = target: T6, FGFR3-BAIAP2L1 Ba/F3 cells (Homo sapiens, UniProt P22607); assay: Ba/F3 cell viability assay, FGFR3; format: cell-based; details: FGFR3-BAIAP2L1 fusion Ba/F3, 48 hours, Cell Titer-Glo 2.0; read-out: Ba/F3 Cells FGFR3 (IC50 nM)
T6 construct: Ba/F3 FGFR3; FGFR3--BAIAP2L1 fusion; Advanced Cellular Dynamics, (Seattle, WA); fused on or other part: Q9UHR4 (BAR/IMD domain-containing adapter protein 2-like 1)
T6 sequence (P22607 whole entry, change not shown, the tested form may be a part): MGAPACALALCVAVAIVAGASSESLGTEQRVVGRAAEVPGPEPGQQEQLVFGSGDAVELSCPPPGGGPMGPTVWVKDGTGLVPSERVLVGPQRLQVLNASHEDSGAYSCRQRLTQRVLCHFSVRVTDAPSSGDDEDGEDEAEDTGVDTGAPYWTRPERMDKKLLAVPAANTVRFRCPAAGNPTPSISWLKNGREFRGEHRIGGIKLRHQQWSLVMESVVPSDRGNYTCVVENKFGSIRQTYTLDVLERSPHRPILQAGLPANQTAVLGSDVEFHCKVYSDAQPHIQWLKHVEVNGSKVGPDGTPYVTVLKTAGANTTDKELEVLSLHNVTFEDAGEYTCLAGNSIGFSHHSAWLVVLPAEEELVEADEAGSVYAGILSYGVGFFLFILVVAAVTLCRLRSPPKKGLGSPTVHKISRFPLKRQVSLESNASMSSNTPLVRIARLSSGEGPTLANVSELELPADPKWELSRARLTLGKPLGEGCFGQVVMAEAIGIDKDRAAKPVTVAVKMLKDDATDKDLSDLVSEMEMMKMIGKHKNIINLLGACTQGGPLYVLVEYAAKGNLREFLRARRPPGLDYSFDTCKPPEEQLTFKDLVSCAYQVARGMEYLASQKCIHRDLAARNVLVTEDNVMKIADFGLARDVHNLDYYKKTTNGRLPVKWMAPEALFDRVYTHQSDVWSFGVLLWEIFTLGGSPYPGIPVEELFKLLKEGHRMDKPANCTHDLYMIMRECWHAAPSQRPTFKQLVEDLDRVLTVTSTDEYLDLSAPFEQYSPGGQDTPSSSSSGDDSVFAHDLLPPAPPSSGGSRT
Text: as §1, §2, §3

[3] = tested on: SNU-16 cells (Gastric Carcinoma, FGFR2 amplification); assay: Cancer cell line cell viability assay, SNU-16; format: cell-based; details: Homo sapiens, 72 hours, Cell Titer-Glo 2.0, read-out: Cancer Cell Viability Assays SNU-16 (IC50 nM)
Text: as §5

FGFR1 = target: T7, FGFR1 (Homo sapiens, UniProt P11362); assay: Kinase binding assay (Kd), FGFR1; details: 11-point 3-fold dilution, qPCR readout
T7 construct: made in house; host or cells: E. coli host derived from BL21, infected with T7 phage
T7 sequence (P11362 22-822): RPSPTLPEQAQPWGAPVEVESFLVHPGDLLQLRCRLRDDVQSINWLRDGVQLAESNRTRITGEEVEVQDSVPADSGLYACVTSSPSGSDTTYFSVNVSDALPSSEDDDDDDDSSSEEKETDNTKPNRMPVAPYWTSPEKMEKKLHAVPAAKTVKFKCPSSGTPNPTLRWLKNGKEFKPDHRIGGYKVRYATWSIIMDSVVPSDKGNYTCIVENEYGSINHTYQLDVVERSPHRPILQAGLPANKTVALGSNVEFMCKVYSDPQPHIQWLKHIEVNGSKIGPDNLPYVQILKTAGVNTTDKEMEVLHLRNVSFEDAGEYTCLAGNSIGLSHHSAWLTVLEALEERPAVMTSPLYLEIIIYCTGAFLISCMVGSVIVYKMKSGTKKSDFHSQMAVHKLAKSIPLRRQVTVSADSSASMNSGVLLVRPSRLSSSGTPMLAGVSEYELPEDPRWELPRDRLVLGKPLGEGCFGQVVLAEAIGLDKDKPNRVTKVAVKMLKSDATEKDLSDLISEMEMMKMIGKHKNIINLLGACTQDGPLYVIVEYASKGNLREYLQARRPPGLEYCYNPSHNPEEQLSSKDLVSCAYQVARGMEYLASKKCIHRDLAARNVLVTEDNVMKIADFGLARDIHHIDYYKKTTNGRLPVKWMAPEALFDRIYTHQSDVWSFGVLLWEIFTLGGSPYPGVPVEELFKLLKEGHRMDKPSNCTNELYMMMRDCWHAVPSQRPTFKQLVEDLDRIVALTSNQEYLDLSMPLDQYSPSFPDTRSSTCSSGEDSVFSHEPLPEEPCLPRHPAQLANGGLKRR
In short: as §4

| SMILES | GI50 (FGFR1-BCR Ba/F3 cells) | Kd (FGFR2) | Kd (FGFR3) | IC50 [1] | Kd (FGFR4) | Kd (FGFR3 (V555M)) | GI50 [2] | IC50 [3] | Kd (FGFR1) |
| --- | --- | --- | --- | --- | --- | --- | --- | --- | --- |
| Cc1cnc(Nc2ccc(N=S(C)(C)=O)cc2)nc1-c1c[nH]c2ccccc12 [Example 11, N-[4-[[dimethyl(oxo)-λ^6-sulfanylidene]amino]phenyl]-4-(1H-indol-3-yl)-5-methyl-pyrimidin-2-amine] | 115 nM | 3300 nM | 370 nM | 153 nM | 0.057 µM | 57 nM | 15 nM | 108 nM | 350 nM |
| COc1cc(Nc2ncc(C)c(-c3c[nH]c4ccccc34)n2)ccc1N=S(C)(C)=O [Example 26, N-[4-[[dimethyl(oxo)-λ^6-sulfanylidene]amino]-3-methoxy-phenyl]-4-(1H-indol-3-yl)-5-methyl-pyrimidin-2-amine] | 75 nM | 2 nM | 10 nM | 111 nM | 0.091 µM | 1 nM | 15 nM | 173 nM | 42 nM |
| Cc1cnc(Nc2ccc(N=S(C)(C)=O)c(OCCN3CCOCC3)c2)nc1-c1c[nH]c2ccccc12 [Example 27, N-[4-[[dimethyl(oxo)-λ^6-sulfanylidene]amino]-3-(2-morpholinoethoxy)phenyl]-4-(1H-indol-3-yl)-5-methyl-pyrimidin-2-amine] | 11 nM | 1 nM | 2 nM | 43 nM | 0.11 µM |  |  | 16 nM | 2 nM |
| COc1cc(Nc2ncc(C)c(-c3c[nH]c4c(C)cccc34)n2)ccc1N=S(C)(C)=O [Example 31, N-[4-[[dimethyl(oxo)-λ^6-sulfanylidene]amino]-3-methoxy-phenyl]-5-methyl-4-(7-methyl-1H-indol-3-yl)pyrimidin-2-amine] | 2 nM | 3 nM | 5 nM | 23 nM | 0.062 µM | 0.5 nM | 40 nM | 5 nM | 1 nM |
| Cc1[nH]c2ccccc2c1-c1nc(Nc2ccc(S(C)(=N)=O)cc2)ncc1Cl (stereo not drawn) [Example 56, 5-Chloro-4-(2-methyl-1H-indol-3-yl)-N-[4-(methylsulfonimidoyl)phenyl]-pyrimidin-2-amine] |  | 34 nM | 49 nM | 377 nM | 0.74 µM | 3 nM | 273 nM | 857 nM | 64 nM |
| Cc1cnc(Nc2ccc(S(C)(=N)=O)cc2)nc1-c1c(C)[nH]c2ccccc12 (stereo not drawn) [Example 57, 5-Methyl-4-(2-methyl-1H-indol-3-yl)-N-[4-(methylsulfonimidoyl)phenyl]-pyrimidin-2-amine] |  | 43 nM | 53 nM | 610 nM | 0.68 µM | 6 nM | 431 nM | 803 nM | 50 nM |
| C=CC(=O)Nc1cc2ccn(-c3nc(Nc4ccc(N=S(C)(C)=O)cc4)ncc3Cl)c2cc1C [Example 85, N-[1-[5-chloro-2-[4-[[dimethyl(oxo)-λ^6-sulfanylidene]amino]anilino]-pyrimidin-4-yl]-6-methyl-indol-5-yl]prop-2-enamide] | 171 nM | 89 nM | 180 nM |  | 2.3 µM | 16 nM | 459 nM |  | 330 nM |
| C=CC(=O)Nc1ccc2c(-c3nc(Nc4ccc(S(=N)(=O)C5CC5)cc4)ncc3Cl)c[nH]c2c1 (stereo not drawn) [Example 90, N-[3-[5-Chloro-2-[4-(cyclopropylsulfonimidoyl)anilino]pyrimidin-4-yl]-1H-indol-6-yl]prop-2-enamide] |  | 59 nM | 41 nM | 81 nM | 0.36 µM | 4 nM |  | 71 nM | 47 nM |
| C=CC(=O)Nc1cccc2c(-c3nc(Nc4ccc(S(C)(=N)=O)cc4)ncc3Cl)c[nH]c12 (stereo not drawn) [Example 91, N-[3-[5-chloro-2-[4-(methylsulfonimidoyl)anilino]pyrimidin-4-yl]-1H-indol-7-yl]prop-2-enamide] |  | 24 nM | 48 nM | 48 nM | 0.13 µM | 2 nM |  | 19 nM | 19 nM |
| C=CC(=O)Nc1ccc2c(-c3nc(Nc4ccc(N=S(C)(C)=O)c(F)c4)ncc3Cl)cn(C)c2c1 [Example 93, N-[3-[5-Chloro-2-[4-[[dimethyl(oxo)-λ^6-sulfanylidene]amino]-3-fluoro-anilino]pyrimidin-4-yl]-1-methyl-indol-6-yl]prop-2-enamide] | 1 nM |  |  |  |  |  | 14 nM |  |  |
| C=CC(=O)Nc1ccc2c(-c3nc(Nc4ccc(N=S(C)(C)=O)nc4)ncc3Cl)cn(C)c2c1 [Example 94, N-[3-[5-Chloro-2-[[6-[[dimethyl(oxo)-λ^6-sulfanylidene]amino]-3-pyridyl]amino]pyrimidin-4-yl]-1-methyl-indol-6-yl]prop-2-enamide] | 4 nM |  |  |  |  |  | 23 nM |  |  |
